Source: patent US9850219B1, “Phenothiazine derivatives and methods of use thereof” (Acenda Pharma, Inc., priority 2016, dated 2017)

Assays:
[1] = test system: lung cancer cells; test: Cytotoxicity SRB assay, summary of Table 2; assay type: cell-based, Human; settings: summary in words of Table 2
Description: (§1) Human non-small cell lung cancer (NSCLC) cell lines (e.g., A549, H441GL and H1299), colon cancer cell lines (e.g., HCT116 and DLD1), breast cancer cell lines (e.g., MCF7 and MDA-MB-231), and pancreatic cancer cell lines (e.g., PANC-1 and SUIT-2) were used in cytotoxicity studies. These NSCLC cell lines have intrinsic resistance to epidermal growth factor receptor (EGFR) inhibitors, e.g., gefitinib. A549 and H441GL are EGFR-wild type adenocarcinoma cell lines. H1299 is an EGFR-wild type large cell carcinoma cell line. HCT116 and DLD1 are metastatic colon cell lines. MCF7 is a hormone-responsive breast cancer cell line. MDA-MB-231 is a triple-negative breast cancer cell line. PANC-1 is a metastatic adenocarcinoma cell line. SUIT-2 is a pancreatic ductal adenocarcinoma cell line.
(§2) Cells were plated in 96-well plates at a density of 2000 cells per well in triplicate. The cells in each well were treated on the third day (to ensure proper plating efficiency and vitality) with different concentrations (0-50 μM) of each test compound for 48 h.
(§3) Cell viability was assessed using the sulforhodamine B (SRB) assay. The medium was discarded, and the adherent cells were fixed by 100 μL of cold 10% trichloroacetic acid (w/v) in each well for 1 h at 4° C. After fixation, cells were stained with 100 μL/well of 0.4% (w/v, in 1% acetic acid) SRB solution for 30 min at room temperature, and then washed 5 times with 1% acetic acid. After air-drying, 100 μL of 10 mM Tris base was added to each well and the absorbance was read at 530 nm. Cytotoxicity is expressed as the percent of cells in drug treated wells relative to number of cells in the solvent only control (set to 100%). Each experiment was performed independently in triplicate and cytotoxicity IC50 value of each test compound was calculated from cytotoxicity data obtained at various concentrations.
NA indicates no activity.

[2] = test system: H441GL; test: Cytotoxicity, sulforhodamine B (SRB) assay, H441GL; assay type: cell-based, Human; settings: 48 h, NA indicates no activity
Description: as §1, with “These NSCLC cell lines have intrinsic resistance to epidermal growth factor receptor (EGFR) inhibitors, e.g., gefitinib.” left out
(§4) All cell lines were grown and maintained in RPMI medium supplemented with 10% fetal bovine serum (FBS, Invitrogen), 2 mM L-glutamine, 100 U/mL penicillin, and 100 μg/mL streptomycin. For cell the culture experiment, stock solution (10 mM) of each test compound was dissolved in dimethyl sulfoxide (DMSO; Sigma).
as §2, §3

[3] = test system: SUIT-2; test: Cytotoxicity, sulforhodamine B (SRB) assay, SUIT-2; assay type: cell-based, human; settings: SUIT-2, Pancreas, 48 h
Description: as §1, §4, §2, §3

[4] = test system: A549; test: Cytotoxicity, sulforhodamine B (SRB) assay, A549; assay type: cell-based, Human; settings: A549, 48 h, NA indicates no activity
Description: as §1, with “These NSCLC cell lines have intrinsic resistance to epidermal growth factor receptor (EGFR) inhibitors, e.g., gefitinib.” left out
as §4, §2, §3

[5] = test system: PANC-1; test: Cytotoxicity, sulforhodamine B (SRB) assay, PANC-1; assay type: cell-based, human; settings: PANC-1, Pancreas, 48 h, NA = no activity
Description: as §1, §4, §2, §3

[6] = test system: MCF7; test: Cytotoxicity, sulforhodamine B (SRB) assay, MCF7; assay type: cell-based, human; settings: MCF7, Breast, 48 h
Description: as §1, §4, §2, §3

[7] = test system: MDA-MB-231; test: Cytotoxicity, sulforhodamine B (SRB) assay, MDA-MB-231; assay type: cell-based, human; settings: MDA-MB-231, Breast, 48 h
Description: as §1, §4, §2, §3

[8] = test system: H441GL cells; test: Study 2: tumor size in mouse lung cancer model; assay type: in vivo, NOD/SCID mice; settings: Study 2, 0.0127 mmol/kg daily, i.p.; for Tumor Size [Fold Change from Week 3 (Mean ± SD, n = 4)] Week 3: Week 3 (baseline, start of treatment)
Experimental: (§5) H441GL cells (1×10^6 cells in 100 μL phosphate-buffered saline/injection) were subcutaneously injected into the right flank of NOD/SCID mice (female, 4-6 weeks old). Mice were allowed 2 weeks for tumor growth. On the first day of Week 3 post injection, tumor-bearing mice were randomly divided into control group (DMSO vehicle, intraperitoneal (i.p.) injection) and test compound treatment groups (5 mg/kg/day, 5 days/week, i.p. injection). Over the period of 10 weeks, tumorigenesis in both groups was measured using a caliper on a weekly basis. The change in tumor size was expressed as in fold change from Week 3. In this study body weight of each mouse was also recorded at the end of each study week.
In this study, the daily dose was 0.0127 mmol/kg instead of 5 mg/kg.

[9] = test system: H441GL cells; test: Study 1: tumor size in mouse lung cancer model; assay type: in vivo, NOD/SCID mice; settings: Study 1, 5 mg/kg/day, 5 days/week, i.p.; for Tumor Size [Fold Change from Week 3 (Mean ± SD, n = 4)] Week 3: Week 3 (baseline, start of treatment)
Experimental: as §5

[10] = test system: H1299; test: Cytotoxicity, sulforhodamine B (SRB) assay, H1299; assay type: cell-based; settings: Homo sapiens, NCI-H1299, H1299, 48 h
Description: as §1, with “These NSCLC cell lines have intrinsic resistance to epidermal growth factor receptor (EGFR) inhibitors, e.g., gefitinib.” left out
as §4, §2, §3

Compound: COCCOCCOCCN1CCN(CCCN2c3ccccc3Sc3ccc(Cl)cc32)CC1 [Compound 4-1a]
- inhibition of cell proliferation of lung cancer cells [1]: inhibit cell proliferation
- IC50 [2]: 13.2 µM
- IC50 [3]: 13.2 µM
- IC50 [4]: 32.5 µM
- IC50 [5]: 12.3 µM
- IC50 [6]: 12.8 µM
- IC50 [7]: 11.9 µM

Compound: COCCOCCOCCOCCOCCOCCN1CCN(CCCN2c3ccccc3Sc3ccc(Cl)cc32)CC1 [Compound 4-2a]
- inhibition of cell proliferation of lung cancer cells [1]: inhibit cell proliferation
- IC50 [2]: 9.1 µM
- IC50 [3]: 13.5 µM
- Tumor Size [Fold Change from Week 3 (Mean ± SD, n = 4)] Week 3 [8]: 1 ± 0 Fold Change
- Tumor Size [Fold Change from Week 3 (Mean ± SD, n = 4)] Week 9 [8]: 10.3 ± 1.6 Fold Change
- Tumor Size [Fold Change from Week 3 (Mean ± SD, n = 4)] Week 13 [8]: 25.6 ± 5.1 Fold Change
- IC50 [4]: 10.9 µM
- IC50 [5]: 13.1 µM
- IC50 [6]: 13.2 µM
- IC50 [7]: 18.1 µM

Compound: COCCOCCOCCOCCOCCOCCOCCOCCOCCOCCOCCOCCN1CCN(CCCN2c3ccccc3Sc3ccc(Cl)cc32)CC1 [Compound 4-3a]
- inhibition of cell proliferation of lung cancer cells [1]: inhibit cell proliferation
- IC50 [2]: 12.7 µM
- IC50 [3]: 25.4 µM
- Tumor Size [Fold Change from Week 3 (Mean ± SD, n = 4)] Week 3 [8]: 1 ± 0 Fold Change
- Tumor Size [Fold Change from Week 3 (Mean ± SD, n = 4)] Week 9 [8]: 12.5 ± 1.5 Fold Change
- Tumor Size [Fold Change from Week 3 (Mean ± SD, n = 4)] Week 13 [8]: 32.6 ± 4.3 Fold Change
- IC50 [4]: 11.9 µM
- IC50 [5]: 7.1 µM
- IC50 [6]: 10 µM
- IC50 [7]: 15.6 µM

Compound: COCCOCCOCCOCCOCCOCCOCCOCCOCCOCCOCCOCCOCCOCCOCCOCCN1CCN(CCCN2c3ccccc3Sc3ccc(Cl)cc32)CC1 [Compound 4-4a]
- inhibition of cell proliferation of lung cancer cells [1]: inhibit cell proliferation
- IC50 [2]: 12.9 µM
- IC50 [4]: 20.2 µM

Compound: COCCOCCOCCOCCOCCOCCOCCOCCOCCOCCOCCOCCOCCOCCOCCOCCN1CCN(CCCN2c3ccccc3Sc3ccc(C(F)(F)F)cc32)CC1 [Compound 4-4b]
- IC50 [2]: 36.4 µM

Compound: COCCOCCOCCOC(=O)N1CCN(CCCN2c3ccccc3Sc3ccc(Cl)cc32)CC1 [Compound 5-1a, NDP-CO—O—[CH2CH2O]3—CH3]
- inhibition of cell proliferation of lung cancer cells [1]: inhibit cell proliferation
- IC50 [2]: 16 µM
- Tumor Size [Fold Change from Week 3 (Mean ± SD, n = 4)] Week 3 [9]: 1 ± 0 Fold Change
- Tumor Size [Fold Change from Week 3 (Mean ± SD, n = 4)] Week 9 [9]: 24.9 ± 4.3 Fold Change
- Tumor Size [Fold Change from Week 3 (Mean ± SD, n = 4)] Week 13 [9]: 55.4 ± 10.8 Fold Change
- IC50 [3]: 18.6 µM
- IC50 [4]: 15.7 µM
- IC50 [5]: 6.7 µM
- IC50 [6]: 15.5 µM
- IC50 [7]: 22.2 µM

Compound: COCCOCCOCCOCCOCCOCCOC(=O)N1CCN(CCCN2c3ccccc3Sc3ccc(Cl)cc32)CC1 [Compound 5-2a, NDP-CO—O—[CH2CH2]6—CH3]
- inhibition of cell proliferation of lung cancer cells [1]: inhibit cell proliferation
- IC50 [2]: 18.7 µM
- Tumor Size [Fold Change from Week 3 (Mean ± SD, n = 4)] Week 3 [9]: 1 ± 0 Fold Change
- Tumor Size [Fold Change from Week 3 (Mean ± SD, n = 4)] Week 9 [9]: 28.0 ± 6.5 Fold Change
- Tumor Size [Fold Change from Week 3 (Mean ± SD, n = 4)] Week 13 [9]: 66.2 ± 18.4 Fold Change
- IC50 [3]: 16.2 µM
- IC50 [4]: 25.2 µM
- IC50 [5]: 6.9 µM
- IC50 [6]: 15.3 µM
- IC50 [7]: 21.6 µM

Compound: COCCOCCOCCOCCOCCOCCOCCOCCOCCOCCOCCOCCOC(=O)N1CCN(CCCN2c3ccccc3Sc3ccc(Cl)cc32)CC1 [Compound 5-3a, NDP-CO—O—[CH2CH2O]12—CH3]
- inhibition of cell proliferation of lung cancer cells [1]: inhibit cell proliferation
- IC50 [2]: 3 µM
- Tumor Size [Fold Change from Week 3 (Mean ± SD, n = 4)] Week 3 [9]: 1 ± 0 Fold Change
- Tumor Size [Fold Change from Week 3 (Mean ± SD, n = 4)] Week 9 [9]: 23.7 ± 3.4 Fold Change
- Tumor Size [Fold Change from Week 3 (Mean ± SD, n = 4)] Week 13 [9]: 53.9 ± 10.1 Fold Change
- IC50 [3]: 11.3 µM
- IC50 [4]: 2.7 µM
- IC50 [5]: 5 µM
- IC50 [6]: 6.5 µM
- IC50 [7]: 8.9 µM

Compound: COCCOCCOCCOCCOCCOCCOCCOCCOCCOCCOCCOCCOCCOCCOCCOCCOC(=O)N1CCN(CCCN2c3ccccc3Sc3ccc(Cl)cc32)CC1 [Compound 5-4a, NDP-CO—O—[CH2CH2O]16—CH3]
- inhibition of cell proliferation of lung cancer cells [1]: inhibit cell proliferation
- IC50 [2]: 3 µM
- IC50 [4]: 6.2 µM

Compound: COCCOCCOCCOCCOCCOCCOCCOCCOCCOCCOCCOCCOCCOCCOCCOCCOC(=O)N1CCN(CCCN2c3ccccc3Sc3ccc(C(F)(F)F)cc32)CC1 [Compound 5-4b, NDT-CO—O—[CH2CH2O]16—CH3]
- inhibition of cell proliferation of lung cancer cells [1]: inhibit cell proliferation
- IC50 [2]: 17.5 µM
- IC50 [4]: 13.8 µM

Compound: COCCOCCOCCOCC(=O)N1CCN(CCCN2c3ccccc3Sc3ccc(Cl)cc32)CC1 [Compound 6-1a, NDP-CO—[CH2CH2O]3—CH3]
- inhibition of cell proliferation of lung cancer cells [1]: inhibit cell proliferation
- IC50 ([2]; Homo sapiens): 21.5 µM
- IC50 ([4]; Homo sapiens): 25.8 µM

Compound: COCCOCCOCCOCC(=O)N1CCN(CCCN2c3ccccc3Sc3ccc(C(F)(F)F)cc32)CC1 [Compound 6-1b, NDT-CO—[CH2CH2O]3—CH3]
- inhibition of cell proliferation of lung cancer cells [1]: inhibit cell proliferation
- IC50 ([2]; Homo sapiens): 16.2 µM
- IC50 ([4]; Homo sapiens): 17 µM

Compound: COCCOCCOCCOCCOCCOCCOCC(=O)N1CCN(CCCN2c3ccccc3Sc3ccc(Cl)cc32)CC1 [Compound 6-2a, NDP-CO—[CH2CH2O]6—CH3]
- inhibition of cell proliferation of lung cancer cells [1]: inhibit cell proliferation
- IC50 ([2]; Homo sapiens): 25.2 µM
- IC50 ([4]; Homo sapiens): 31.5 µM

Compound: COCCOCCOCCOCCOCCOCCOCC(=O)N1CCN(CCCN2c3ccccc3Sc3ccc(C(F)(F)F)cc32)CC1 [Compound 6-2b, NDT-CO—[CH2CH2O]6—CH3]
- inhibition of cell proliferation of lung cancer cells [1]: inhibit cell proliferation
- IC50 [2]: 15.5 µM
- IC50 [4]: 15.5 µM

Compound: COCCOCCOCCOCCOCCOCCOCCOCCOCCOCCOCCOCCOCC(=O)N1CCN(CCCN2c3ccccc3Sc3ccc(Cl)cc32)CC1 [Compound 6-3a, NDP-CO—[CH2CH2O]12—CH3]
- inhibition of cell proliferation of lung cancer cells [1]: inhibit cell proliferation
- IC50 ([2]; Homo sapiens): 24.3 µM
- IC50 ([4]; Homo sapiens): 22.3 µM

Compound: COCCOCCOCCOCCOCCOCCOCCOCCOCCOCCOCCOCCOCC(=O)N1CCN(CCCN2c3ccccc3Sc3ccc(C(F)(F)F)cc32)CC1 [Compound 6-3b, NDT-CO—[CH2CH2O]12—CH3]
- IC50 [4]: 20.6 µM

Compound: COCCOCCOCCOCCOCCOCCOCCOCCOCCOCCOCCOCCOCCOCCOCCOCCOCC(=O)N1CCN(CCCN2c3ccccc3Sc3ccc(Cl)cc32)CC1 [Compound 6-4a, NDP-CO—[CH2CH2O]16—CH3]
- IC50 ([2]; Homo sapiens): 39.1 µM

Compound: COCCOCCOCCOCCOCCOCCOCCOCCOCCOCCOCCOCCOCCOCCOCCOCCOCC(=O)N1CCN(CCCN2c3ccccc3Sc3ccc(C(F)(F)F)cc32)CC1 [Compound 6-4b, NDT-CO—[CH2CH2O]16—CH3]
- IC50 ([2]; Homo sapiens): 30 µM
- IC50 ([4]; Homo sapiens): 44.2 µM

Compound: FC(F)(F)c1ccc2c(c1)N(CCCN1CCNCC1)c1ccccc1S2 [NDT, N-desmethyl trifluoperazine, reference compound]
- inhibition of cell proliferation of lung cancer cells [1]: inhibit cell proliferation
- IC50 ([2]; Homo sapiens): 3.9 µM
- IC50 [10]: 6.9 µM
- IC50 ([4]; Homo sapiens): 6.3 µM
